Results reported in patent US4918056A, “2-substituted arabinopyranosyl nucleosides and nucleotides” (priority 1986, dated 1990).

Experiments:
M5076 sarcoma = assay: Therapeutic activity in C57/B16 mice with s.c. M5076 sarcoma; type: in vivo, mouse (C57/B16 female); settings: days 3-7; for % ILS (increase in life span): based on median survival; for Half Maximal Tumor Volume: control 32; for Median survival: control 37
Description: (§1) The therapeutic activity of 85024 was evaluated in C57/B16 female mice implanted s.c. with either Lewis lung carcinoma or M5076 sarcoma (Table 5).
(§2) C57/B16 female mice were implanted s.c. using a trochar on day 0 with a 50 mg piece of either Lewis lung carcinoma of M5076 sarcoma. Drugs were administered i.p. once daily on days 3, 4, 5, 6 and 7. Tumor size (two perpendicular diameters) was measured with calipers and volume was estimated algebraically. Survival was monitored daily for 60 days. % ILS (increase in life span) is based on median survival.

L1210/ara-C leukemia = assay: Therapeutic activity in DBA/2N mice with ara-C resistant L1210 leukemia; settings: for Median survival: control 7; for Mean ± SD survival: control 7.1 + 0.1
Description: (§3) In conducting the evaluations, the activity was tested against intraperitoneal (i.p.) implanted leukemia in mice.
(§4) DBA/2N female mice (20 g) were implanted i.p. with 1×10^6 L1210 leukemia cells on day 0. Mice were weighed and inspected for tumor growth and survival daily. […] Dosages varied from 1 to 800 mg/kg/day (mkd).
(§5) Survival time was measured in days after tumor implantation. % ILS (increase in life span) was based on mean survival.
(§6) Testing was followed as described in the NCI protocol and evaluation by comparison of median survival time (ST) of the treated animals to that of the control animals by the percentage increase in % ILS.
(§7) Drug resistant L1210 leukemia cell sublines were obtained from the National Cancer Institute. […] Eight mice were used as controls and five mice for each drug dosage group. Drugs were administered i.p. once per day on days 1, 2, 3, 4 and 5.

L1210 leukemia cells [1] = assay: Reversal of L1210 growth inhibition by salvageable nucleosides; type: cell-based, mouse
Description: Reversal studies were conducted as follows: […], 85027 or 5-FdUr were added at various concentrations near their IC50 to cultures of L1210 leukemia cells, maintained in PRMI 1640 medium supplemented with 10% fetal calf serum and 16mM HEPES, pH 7.2 as described in Example 9. Nucleosides including thymidine (1×10^-5 M), uridine (1×10^-4 M), deoxyuridine ([…]), adenosine (1×10^-4 M), or guanosine (1×10^-5 M) were also added to identical drug (85024, 85027 or 5-FdUr) containing L1210 leukemia cultures. Cellular growth inhibition or its prevention by the addition of salvageable nucleosides was determined 48 hours later by counting cells using an electronic Coulter Counter.

L1210/5-FU leukemia = assay: Therapeutic activity in DBA/2N mice with 5-FU resistant L1210 leukemia; type: in vivo, mouse (DBA/2N female); settings: for Median survival: control 9; for Mean ± SD survival: control 9.25 ± 0.2
Description: as §3, §4, §5, §6, §7

L1210 leukemia cells [2] = assay: L1210 leukemia cell growth inhibition (48 hr, Coulter counter); type: cell-based, mouse; settings: Mus musculus, L1210, RPMI 1640, 10% fetal calf serum
Description: Compounds 85024, 85023, 85058, 85027 and 85060 having a glycosidic linkage between the 2'carbon of the arabinose (in pyranose configuration) and base were evaluated for their growth inhibitory action on L1210 leukemia cells maintained in RPMI 1640 medium supplemented with 10% fetal calf serum and 16 mM HEPES, pH 7.2. Cellular growth inhibition was determined by incubating […] for 48 hr in 2 ml of media containing varying concentrations of drugs. Cell growth inhibition (50% growth inhibitory concentration, IC50) was determined after counting cells with a Coulter counter (Bernacki et al., Cancer Res. 45, 695, 1985). Drug concentrations which inhibited cell growth by 50% (IC50) are listed for each compound in Table 1.

Lewis lung carcinoma = assay: Therapeutic activity in C57/B16 mice with s.c. Lewis lung carcinoma; type: in vivo, mouse (C57/B16 female); settings: for % ILS (increase in life span): based on median survival; for Median survival: control 22
Description: as §1, §2

COC1OC[C@@H](OC(C)=O)[C@@H](OC(C)=O)[C@]1(F)n1ccc(=O)[nH]c1=O (stereo partly drawn) [compound 85024, Methyl 3,4-di-0-acetyl-2-deoxy-2(R)-[1H,3H-2,4-dioxo-1-pyrimidinyl]-2-fluoro-α-D-arabinopyranoside [5a] and methyl 3,4-di-0-acetyl-2-deoxy-2(R)-[1H,3H-2,4-dioxo-1-pyrimidinyl]-2-fluoro-β-D-arabinopyranoside [6a]]
effect on tumor size (M5076 sarcoma; 400 mg/kg/day i.p.): statistically significant decrease in tumor size
% ILS (increase in life span) (M5076 sarcoma; 50 mkd × 5 i.p.): 0%
Half Maximal Tumor Volume (M5076 sarcoma; 50 mkd × 5 i.p., p < 0.05): 35 days
Median survival (M5076 sarcoma; 50 mkd × 5 i.p.): 36 days
Survival Range (M5076 sarcoma; 50 mkd × 5 i.p., one animal survived for 60 days but bore a large, frank tumor): 34 to 60 days
Survival Range (M5076 sarcoma; 200 mkd × 5 i.p.): 36 to 42 days
% ILS (increase in life span) (M5076 sarcoma; 200 mkd × 5 i.p.): 0%
Half Maximal Tumor Volume (M5076 sarcoma; 200 mkd × 5 i.p.): 35 days
Median survival (M5076 sarcoma; 200 mkd × 5 i.p.): 37 days
Survival Range (M5076 sarcoma; 400 mkd × 5 i.p.): 33 to 47 days
% ILS (increase in life span) (M5076 sarcoma; 400 mkd × 5 i.p.): 14%
Half Maximal Tumor Volume (M5076 sarcoma; 400 mkd × 5 i.p., p < 0.05): 38 days
Median survival (M5076 sarcoma; 400 mkd × 5 i.p.): 42 days
Mean Animal Weight (L1210/ara-C leukemia; 100 mkd × 5 i.p.): 20.7 g
Survival Range (L1210/ara-C leukemia; 100 mkd × 5 i.p.): 8 to 9 days
% ILS (increase in life span) (L1210/ara-C leukemia; 100 mkd × 5 i.p., NS): 28%
Median survival (L1210/ara-C leukemia; 100 mkd × 5 i.p.): 9 days
Mean ± SD survival (L1210/ara-C leukemia; 100 mkd × 5 i.p.): 8.6 ± 0.2 days
Mean Animal Weight (L1210/ara-C leukemia; 200 mkd × 5 i.p.): 21.0 g
Survival Range (L1210/ara-C leukemia; 200 mkd × 5 i.p.): 8 to 9 days
% ILS (increase in life span) (L1210/ara-C leukemia; 200 mkd × 5 i.p., P <.01): 28%
Median survival (L1210/ara-C leukemia; 200 mkd × 5 i.p.): 9 days
Mean ± SD survival (L1210/ara-C leukemia; 200 mkd × 5 i.p.): 8.8 ± 0.2 days
Mean Animal Weight (L1210/ara-C leukemia; 500 mkd × 5 i.p.): 18.6 g
Survival Range (L1210/ara-C leukemia; 500 mkd × 5 i.p.): 10 to 11 days
% ILS (increase in life span) (L1210/ara-C leukemia; 500 mkd × 5 i.p., P <.01): 57%
Median survival (L1210/ara-C leukemia; 500 mkd × 5 i.p.): 11 days
Mean ± SD survival (L1210/ara-C leukemia; 500 mkd × 5 i.p.): 10.8 ± 0.2 days
cross resistance to ara-C and 5-FU (L1210/ara-C leukemia; summary of L1210/ara-C and L1210/5-FU tests): not cross resistant
reversal of cellular cytotoxicity by exogenous nucleosides (L1210 leukemia cells [1]; exogenous thymidine, uridine or deoxyuridine, tissue culture): not reversed by exogenous thymidine, uridine or deoxyuridine
effect of added nucleoside on the IC50 (L1210 leukemia cells [1]; thymidine (1×10^-5 M), uridine (1×10^-4 M) or deoxyuridine (1×10^-5 M)): < 10%
Mean Animal Weight (L1210/5-FU leukemia; 100 mkd × 5 i.p.): 20.6 g
Survival Range (L1210/5-FU leukemia; 100 mkd × 5 i.p.): 9 to 12 days
% ILS (increase in life span) (L1210/5-FU leukemia; 100 mkd × 5 i.p., P <.05): 22%
Median survival (L1210/5-FU leukemia; 100 mkd × 5 i.p.): 11 days
Mean ± SD survival (L1210/5-FU leukemia; 100 mkd × 5 i.p.): 10.6 ± .5 days
Mean Animal Weight (L1210/5-FU leukemia; 200 mkd × 5 i.p.): 20.2 g
Survival Range (L1210/5-FU leukemia; 200 mkd × 5 i.p.): 9 to 11 days
% ILS (increase in life span) (L1210/5-FU leukemia; 200 mkd × 5 i.p., P 0.1): 11%
Median survival (L1210/5-FU leukemia; 200 mkd × 5 i.p.): 10 days
Mean ± SD survival (L1210/5-FU leukemia; 200 mkd × 5 i.p.): 10 ± 0.4 days
% ILS (increase in life span) (L1210/5-FU leukemia; 500 mkd × 5 i.p.): -34%
Mean Animal Weight (L1210/5-FU leukemia; 500 mkd × 5 i.p.): 15.9 g
Survival Range (L1210/5-FU leukemia; 500 mkd × 5 i.p.): 6 to 7 days
Median survival (L1210/5-FU leukemia; 500 mkd × 5 i.p.): 6 days
Mean ± SD survival (L1210/5-FU leukemia; 500 mkd × 5 i.p.): 6.4 ± 0.2 days
IC50 (L1210 leukemia cells [2]): 55 µM
effect on tumor size (Lewis lung carcinoma; 400 mg/kg/day i.p., days 3-7): statistically significant decrease in tumor size
increase of median day to reach half maximal tumor size (Lewis lung carcinoma; 400 mg/kg/day i.p., days 3-7, normalized for animal weight, from day 19 to 23): 4 days
Survival Range (Lewis lung carcinoma; 50 mkd × 5 i.p., days 3-7): 24 to 31 days
% ILS (increase in life span) (Lewis lung carcinoma; 50 mkd × 5 i.p., days 3-7): 22%
Half Maximal Tumor Volume (Lewis lung carcinoma; 50 mkd × 5 i.p., days 3-7, control 19, p < 0.05): 20.5 days
Median survival (Lewis lung carcinoma; 50 mkd × 5 i.p., days 3-7): 27 days
Survival Range (Lewis lung carcinoma; 200 mkd × 5 i.p., days 3-7): 17 to 32 days
% ILS (increase in life span) (Lewis lung carcinoma; 200 mkd × 5 i.p., days 3-7): 40%
Half Maximal Tumor Volume (Lewis lung carcinoma; 200 mkd × 5 i.p., days 3-7, control 19): 21 days
Median survival (Lewis lung carcinoma; 200 mkd × 5 i.p., days 3-7): 31 days
Survival Range (Lewis lung carcinoma; 400 mkd × 5 i.p., days 3-7): 21 to 31 days
% ILS (increase in life span) (Lewis lung carcinoma; 400 mkd × 5 i.p., days 3-7, p < 0.05): 40%
Half Maximal Tumor Volume (median day to reach half maximal tumor size) (Lewis lung carcinoma; 400 mkd × 5 i.p., days 3-7, control 19, p < 0.05): 23 days
Median survival (Lewis lung carcinoma; 400 mkd × 5 i.p., days 3-7): 31 days
effect on lifespan and tumor size (Lewis lung carcinoma; s.c. solid tumors (Lewis lung carcinoma or M5076 sarcoma)): increased their lifespan and significantly decreased tumor size
